Measured values from paper PMC10818623, “Assessing Trans-Inhibition of OATP1B1 and OATP1B3 by Calcineurin and/or PPIase Inhibitors and Global Identification of OATP1B1/3-Associated Proteins” (Pharmaceutics, 2023).
Where “and” joins values, the source holds several entries; their conditions need not be identical. Equal values may be shown once. Read-outs that look alike come from different tables or passages of the source. One block for each compound: values may come before it.

Tests used:
[1] = target: T1, OATP1B1 (Homo sapiens, UniProt Q9Y6L6); assay: Preincubation-induced trans-inhibition of OATP1B1-mediated [3H]-E217βG transport in HEK293-FLAG-OATP1B1 cells; assay type: cell-based; parameters: expressed in transfected cells; details: for IC50: washing, [3H]-E217βG 1 µM 2 min without inhibitor, HEK293-FLAG-OATP1B1, read-out: Preincubation IC50 against OATP1B1
T1 sequence (Q9Y6L6 1-691): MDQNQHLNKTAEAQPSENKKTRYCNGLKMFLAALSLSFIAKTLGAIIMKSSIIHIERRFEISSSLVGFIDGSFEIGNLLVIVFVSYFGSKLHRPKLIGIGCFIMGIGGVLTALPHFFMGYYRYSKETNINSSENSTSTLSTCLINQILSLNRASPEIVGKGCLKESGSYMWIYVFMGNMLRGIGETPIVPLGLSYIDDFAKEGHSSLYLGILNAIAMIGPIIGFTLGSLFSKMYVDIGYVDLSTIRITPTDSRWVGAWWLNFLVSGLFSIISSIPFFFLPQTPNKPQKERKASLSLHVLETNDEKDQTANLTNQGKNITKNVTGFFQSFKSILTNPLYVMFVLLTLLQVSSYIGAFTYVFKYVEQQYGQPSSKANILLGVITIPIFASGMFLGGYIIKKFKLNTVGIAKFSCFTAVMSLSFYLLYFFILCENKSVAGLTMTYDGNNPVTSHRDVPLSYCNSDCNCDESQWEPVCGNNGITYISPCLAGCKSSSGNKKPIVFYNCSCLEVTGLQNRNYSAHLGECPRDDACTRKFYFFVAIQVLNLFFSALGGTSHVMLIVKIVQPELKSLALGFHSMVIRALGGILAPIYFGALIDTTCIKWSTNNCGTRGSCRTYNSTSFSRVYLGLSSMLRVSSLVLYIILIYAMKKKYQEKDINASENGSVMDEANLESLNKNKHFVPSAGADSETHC
Text: The IC50 values were estimated by nonlinear regression using the three-parameter model as below with GraphPad Prism v.9.0 (GraphPad Software, La Jolla, CA, USA). E = Bottom + (Top − Bottom)/(1 + (C/IC50))

[2] = target: T2, OATP1B3 (Homo sapiens, UniProt Q9NPD5); assay: Preincubation-induced trans-inhibition of OATP1B3-mediated [3H]-CCK-8 transport in HEK293-FLAG-OATP1B3 cells; assay type: cell-based; details: preincubation 10–60 min with tacrolimus 1–10 µM; greatest reduction
T2 construct: expressed in transfected cells
T2 sequence (Q9NPD5 1-702): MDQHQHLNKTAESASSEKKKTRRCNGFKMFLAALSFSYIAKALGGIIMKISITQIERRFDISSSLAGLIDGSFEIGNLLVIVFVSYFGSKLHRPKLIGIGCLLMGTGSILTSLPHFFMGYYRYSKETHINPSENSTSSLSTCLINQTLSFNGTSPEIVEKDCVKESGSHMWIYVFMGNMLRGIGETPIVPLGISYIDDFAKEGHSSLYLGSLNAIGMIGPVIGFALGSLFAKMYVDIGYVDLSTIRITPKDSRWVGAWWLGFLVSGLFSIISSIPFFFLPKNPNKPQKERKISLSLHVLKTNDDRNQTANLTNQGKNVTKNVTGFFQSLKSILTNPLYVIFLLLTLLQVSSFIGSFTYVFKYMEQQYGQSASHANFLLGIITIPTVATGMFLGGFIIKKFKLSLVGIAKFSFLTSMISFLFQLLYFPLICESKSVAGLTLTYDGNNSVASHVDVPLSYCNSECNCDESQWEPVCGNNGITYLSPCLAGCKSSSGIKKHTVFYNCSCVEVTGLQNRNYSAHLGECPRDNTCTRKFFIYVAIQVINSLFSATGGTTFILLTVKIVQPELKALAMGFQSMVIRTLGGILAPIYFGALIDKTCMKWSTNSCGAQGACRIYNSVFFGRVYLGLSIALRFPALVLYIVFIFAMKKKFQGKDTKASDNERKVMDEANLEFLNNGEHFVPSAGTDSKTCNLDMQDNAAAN
Procedure: (§1) HEK293-FLAG-OATP1B1 and HEK293-FLAG-OATP1B3 cells were seeded at a density of 1.5 × 10^5 cells per well of 24-well plate coated with poly-L-lysine and allowed to grow for 48 h to confluence before uptake studies were performed as published previously; the preincubation effects on OATP1B1- and OATP1B3-mediated transport were also determined as previously published. […] After washing three times with HBSS buffer (pH 7.4), substrate accumulation was determined in the absence of inhibitors. [^3H]-E217βG (1 µM, 2 min) and [^3H]-E1S (1 µM, 2 min) were used as probe substrates for OATP1B1; [^3H]-CCK-8 (1 µM, 3 min) was used as the probe substrate for OATP1B3, similar to previous publications. [^3H]-pitavastatin accumulation (1 µM, 30 s) in human SCH was conducted on day 2 of culture as has been published previously. Substrate accumulation was determined by scintillation counting (LS6500 scintillation counter, Beckman Coulter, Brea, CA) and normalized to a protein concentration determined via BCA assay (Pierce Chemical, Rockford, IL, USA). Transport assays on a blank plate without cells were conducted to correct for the nonspecific binding to the assay plate.

[3] = system: human SCH; assay: [3H]-pitavastatin accumulation in human sandwich-cultured hepatocytes after inhibitor preincubation and washing; assay type: cell-based; details: 10 µM
Procedure: Fresh primary human hepatocytes were purchased from Lonza Walkersville, Inc. (Walkersville, MD, USA). Donor information is provided in Supplementary Table S1. Cell viability was 96% after centrifugation. Culture of human SCH was performed as described previously. In brief, on day 1, cells were plated at 3 × 10^5 cells per well in 24-well Biocoat™ plates (Thermo Fisher Scientific, Waltham, MA, USA). When cells had attached to the plate after 6 h of seeding, cells were overlaid with Matrigel™ (Thermo Fisher Scientific, Waltham, MA, USA) (0.25 mg/mL) in feeding medium: phenol red-free DMEM supplemented with 2 mM L-glutamine, 1% (v/v) MEM NEAA, 100 units/mL of penicillin G sodium, 100 µg/mL of streptomycin sulfate, 0.1 μM dexamethasone, and 1% (v/v) ITS^+ premix. Uptake experiments were conducted on day two of culture, the next day after seeding.

[4] = target: T2, OATP1B3; parameters: method as in PMID 22240838; details: cited from earlier work
[5] = cited from earlier work
[6] = target: T1, OATP1B1; details: E1S as substrate; cited from earlier work
[7] = target: T1, OATP1B1; assay: Preincubation-induced trans-inhibition of OATP1B1-mediated [3H]-E1S transport in HEK293-FLAG-OATP1B1 cells; assay type: cell-based; parameters: expressed in transfected cells; details: E1S 1 µM, 2 min
Procedure: as §1

IC50 ([1]; 10 min preincubation (0.001–10 µM)): ~9.4 µM and 9.4 µM
IC50 ([1]; 30 min preincubation (0.001–10 µM)): ~3.1 µM and 3.1 µM
IC50 ([1]; 60 min preincubation (0.001–10 µM)): 2.2 ± 1.4 µM
IC50 against OATP1B1, fold greater than that of CsA ([1]; 60 min preincubation, SCY-635 IC50 versus CsA IC50): ~ 18 fold
Preincubation IC50 at 30 min, fold higher than IC50 at 60 min preincubation ([1]; OATP1B1, 30 min versus 60 min preincubation): 1.4 fold
Effect of preincubation on OATP1B1-mediated transport ([1]; SCY-635, all preincubation times, only at 5 and 10 µM, p < 0.00001): significantly reduced
Compound: C/C=C/C[C@@H](C)[C@@H](O)[C@H]1C(=O)N[C@@H](CC)C(=O)N(C)[C@H](SCCN(C)C)C(=O)N(C)[C@@H](CC(C)(C)O)C(=O)N[C@@H](C(C)C)C(=O)N(C)[C@@H](CC(C)C)C(=O)N[C@@H](C)C(=O)N[C@H](C)C(=O)N(C)[C@@H](CC(C)C)C(=O)N(C)[C@@H](CC(C)C)C(=O)N(C)[C@@H](C(C)C)C(=O)N1C [SCY-635]

OATP1B3-mediated transport, reduced up to, fold compared to the control [2]: 0.20 ± 0.02 fold compared to the control
OATP1B1-mediated transport, reduced up to, fold compared to the control ([1]; preincubation 10–60 min with tacrolimus 1–10 µM, greatest reduction): 0.18 ± 0.03 fold compared to the control
OATP1B1-mediated transport of [3H]-E1S, fold that of the control ([7]; 1 µM preincubation, 10 min): 0.85 ± 0.02 fold that of the control
OATP1B1-mediated transport of [3H]-E1S, fold that of the control ([7]; 1 µM preincubation, 30 min): 0.88 ± 0.04 fold that of the control
OATP1B1-mediated transport of [3H]-E1S, fold that of the control ([7]; 10 µM preincubation, 10 min): 0.59 ± 0.04 fold that of the control
OATP1B1-mediated transport of [3H]-E1S, fold that of the control ([7]; 10 µM preincubation, 30 min): 0.59 ± 0.05 fold that of the control
OATP1B1-mediated transport of [3H]-E1S, fold that of the control ([7]; 10 µM preincubation, 60 min): 0.55 ± 0.04 fold that of the control
Compound: C=CC[C@@H]1/C=C(\C)C[C@H](C)C[C@H](OC)[C@H]2O[C@@](O)(C(=O)C(=O)N3CCCC[C@H]3C(=O)O[C@H](/C(C)=C/[C@@H]3CC[C@@H](O)[C@H](OC)C3)[C@H](C)[C@@H](O)CC1=O)[C@H](C)C[C@@H]2OC [tacrolimus]
[3H]-pitavastatin accumulation after washout (long-lasting inhibition), fold that of the control [3]: 0.59 ± 0.09 fold that of the control
[3H]-pitavastatin accumulation, fold that of the control ([3]; human SCH, 1 h preincubation, washing, pitavastatin 1 µM, 0.5 min, N = 1 donor): 0.58 ± 0.07 fold that of the control
Preincubation-induced trans-inhibition against OATP1B3 [4]: no preincubation-induced trans-inhibition
DDI against atorvastatin [5]: does not cause DDIs
DDI against simvastatin [5]: does not cause DDIs
Increase of AUC of cerivastatin ([5]; long-term tacrolimus treatment, renal transplant recipients): 1.5 fold
Increase of AUC of pravastatin ([5]; long-term tacrolimus treatment, two pediatric and adolescent cardiac transplant recipients): ~ 10 fold
Preincubation-induced trans-inhibition against OATP1B1 [6]: no preincubation-induced trans-inhibition
